From paper PMC3692398 (Biochemical pharmacology, 2013)

Experiments:
hDAT [1] = target: T1, hDAT (Homo sapiens, UniProt Q01959); assay: Inhibition of [125I]RTI-55 binding, HEK-hDAT membranes; conditions: read-out: Inhibition of [125I]RTI-55 binding Ki ± sem, hDAT; HEK-hDAT membranes
hNET [2] = target: T2, hNET (Homo sapiens, UniProt P23975); assay: biochemical; type: binding; conditions: read-out: Inhibition of [125I]RTI-55 binding Ki ± sem, hNET; HEK-hNET membranes
hDAT [3] = target: T1, hDAT; assay: Inhibition of [3H]DA uptake, intact HEK-hDAT cells; type: cell-based
hSERT [4] = target: T3, hSERT (Homo sapiens, UniProt P31645); assay: Inhibition of [3H]5-HT uptake, intact HEK-hSERT cells; type: cell-based; conditions: read-out: Inhibition of [3H]neurotransmitter uptake IC50 ± sem, hSERT [3H]5-HT; 20 nM [3H]5-HT, intact cells
T3 sequence (P31645 whole entry): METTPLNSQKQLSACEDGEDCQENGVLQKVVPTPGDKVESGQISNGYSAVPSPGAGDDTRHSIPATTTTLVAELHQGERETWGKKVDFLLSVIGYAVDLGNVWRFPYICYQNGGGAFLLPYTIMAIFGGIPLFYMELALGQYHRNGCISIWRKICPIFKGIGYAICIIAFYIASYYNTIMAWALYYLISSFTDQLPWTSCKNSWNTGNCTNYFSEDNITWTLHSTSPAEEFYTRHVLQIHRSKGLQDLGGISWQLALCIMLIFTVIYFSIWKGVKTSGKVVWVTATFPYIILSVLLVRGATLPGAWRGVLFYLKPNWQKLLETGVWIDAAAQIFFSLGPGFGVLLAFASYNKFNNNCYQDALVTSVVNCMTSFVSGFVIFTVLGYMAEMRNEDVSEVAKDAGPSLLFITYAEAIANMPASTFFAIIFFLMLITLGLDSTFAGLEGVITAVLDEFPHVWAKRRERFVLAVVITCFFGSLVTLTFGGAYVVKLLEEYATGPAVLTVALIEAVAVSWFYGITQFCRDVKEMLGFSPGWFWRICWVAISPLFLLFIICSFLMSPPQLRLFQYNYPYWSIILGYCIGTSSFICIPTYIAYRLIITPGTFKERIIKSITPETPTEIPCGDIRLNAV

hNET [5] = target: T2, hNET; assay: cell-based; type: cell-based
hDAT [6] = target: T1, hDAT; assay: Superfusion release of preloaded [3H]DA from HEK-hDAT cells; type: cell-based
hSERT [7] = target: T3, hSERT; assay: Superfusion release of preloaded [3H]5-HT from HEK-hSERT cells; type: cell-based
hNET [8] = target: T2, hNET; assay: Superfusion release of preloaded [3H]NE from HEK-hNET cells; type: cell-based
hVMAT2 [9] = target: T4, hVMAT2 (Homo sapiens, UniProt Q05940); assay: Inhibition of [3H]5-HT uptake, HEK-hVMAT2 membrane preparation; type: biochemical; conditions: read-out: Inhibition of [3H]5-HT uptake IC50 ± sem, hVMAT2; 40 nM [3H]5-HT, 2 mM MgATP
T4 sequence (Q05940 whole entry, the tested form may be a part): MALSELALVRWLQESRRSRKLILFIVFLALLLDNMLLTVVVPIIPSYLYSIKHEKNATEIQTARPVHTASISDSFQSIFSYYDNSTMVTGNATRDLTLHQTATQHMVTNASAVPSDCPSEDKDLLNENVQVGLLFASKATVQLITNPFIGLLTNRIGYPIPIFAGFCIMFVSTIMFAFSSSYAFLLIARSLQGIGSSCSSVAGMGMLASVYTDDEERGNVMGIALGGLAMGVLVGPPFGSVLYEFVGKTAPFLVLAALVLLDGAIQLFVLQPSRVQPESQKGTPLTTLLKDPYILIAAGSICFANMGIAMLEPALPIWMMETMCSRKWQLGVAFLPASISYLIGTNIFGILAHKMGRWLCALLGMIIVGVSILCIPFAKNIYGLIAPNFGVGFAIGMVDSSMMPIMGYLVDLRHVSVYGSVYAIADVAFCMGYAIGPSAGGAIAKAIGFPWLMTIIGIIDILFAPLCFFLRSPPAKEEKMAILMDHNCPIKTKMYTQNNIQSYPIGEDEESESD

hVMAT2 [10] = target: T4, hVMAT2; assay: Superfusion release of preloaded [3H]NE from HEK-hVMAT2 cells; type: cell-based; conditions: read-out: Drug-induced release of [3H]NE EC50 ± sem, hVMAT2; superfusion
h5-HT1A receptor [11] = target: T5, h5-HT1A receptor (Homo sapiens, UniProt P08908); assay: [3H]8-OH-DPAT binding, HEK-h5-HT1A; conditions: read-out: Inhibition of radioligand binding Ki ± sem, h5-HT1A [3H]8OH-DPAT
T5 sequence (P08908 1-422): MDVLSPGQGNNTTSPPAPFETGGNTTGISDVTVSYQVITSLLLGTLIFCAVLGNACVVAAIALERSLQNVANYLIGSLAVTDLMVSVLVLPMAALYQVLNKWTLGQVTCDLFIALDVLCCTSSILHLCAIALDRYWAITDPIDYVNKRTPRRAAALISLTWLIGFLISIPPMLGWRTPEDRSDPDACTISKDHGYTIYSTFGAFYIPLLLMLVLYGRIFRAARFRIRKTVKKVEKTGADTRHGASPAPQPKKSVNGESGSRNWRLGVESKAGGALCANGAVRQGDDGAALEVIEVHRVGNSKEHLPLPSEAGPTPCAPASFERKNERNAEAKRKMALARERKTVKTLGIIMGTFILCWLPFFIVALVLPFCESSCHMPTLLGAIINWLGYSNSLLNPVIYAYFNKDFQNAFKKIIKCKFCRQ

h5-HT2A receptor [12] = target: T6, h5-HT2A receptor (Homo sapiens, UniProt P28223); assay: [125I]DOI binding, HEK-h5-HT2A; conditions: read-out: Inhibition of radioligand binding Ki ± sem, h5-HT2A [125I]DOI
T6 sequence (P28223 whole entry): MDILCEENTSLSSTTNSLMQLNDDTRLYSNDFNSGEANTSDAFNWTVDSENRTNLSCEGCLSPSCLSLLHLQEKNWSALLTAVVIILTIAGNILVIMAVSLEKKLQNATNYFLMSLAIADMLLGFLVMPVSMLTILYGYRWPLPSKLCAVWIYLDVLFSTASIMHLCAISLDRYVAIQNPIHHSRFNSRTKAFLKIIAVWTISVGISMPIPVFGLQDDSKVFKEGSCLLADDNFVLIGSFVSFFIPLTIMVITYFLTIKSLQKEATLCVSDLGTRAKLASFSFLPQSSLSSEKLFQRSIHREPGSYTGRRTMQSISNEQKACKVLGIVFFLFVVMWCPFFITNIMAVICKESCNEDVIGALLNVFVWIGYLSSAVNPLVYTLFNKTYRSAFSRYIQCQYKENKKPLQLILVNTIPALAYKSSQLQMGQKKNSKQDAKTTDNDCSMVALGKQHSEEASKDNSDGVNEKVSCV

h5-HT2C receptor [13] = target: T7, h5-HT2C receptor (Homo sapiens, UniProt P28335); assay: biochemical; type: binding; conditions: read-out: Inhibition of radioligand binding Ki ± sem, h5-HT2C [125I]DOI
T7 sequence (P28335 33-458): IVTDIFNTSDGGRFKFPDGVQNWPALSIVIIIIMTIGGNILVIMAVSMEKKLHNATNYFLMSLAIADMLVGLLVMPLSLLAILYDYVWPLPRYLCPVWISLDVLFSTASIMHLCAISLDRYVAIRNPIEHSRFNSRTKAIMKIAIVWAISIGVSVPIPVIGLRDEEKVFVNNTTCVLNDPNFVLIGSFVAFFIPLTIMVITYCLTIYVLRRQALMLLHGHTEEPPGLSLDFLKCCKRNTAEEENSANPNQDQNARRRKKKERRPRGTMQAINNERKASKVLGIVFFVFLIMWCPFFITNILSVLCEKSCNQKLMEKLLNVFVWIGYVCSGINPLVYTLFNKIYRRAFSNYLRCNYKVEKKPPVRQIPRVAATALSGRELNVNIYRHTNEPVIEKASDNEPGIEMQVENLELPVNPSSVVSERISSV

h5-HT1A receptor [14] = target: T5, h5-HT1A receptor; assay: Stimulation of [35S]GTPγS binding, HEK-h5-HT1A membranes; type: biochemical
h5-HT2A receptor [15] = target: T6, h5-HT2A receptor; assay: Inhibition of 5-HT-stimulated IP-1 formation; type: cell-based; conditions: 100 nM 5-HT
h5-HT2C receptor [16] = target: T7, h5-HT2C receptor; assay: Inhibition of 5-HT-stimulated IP-1 formation; type: cell-based; conditions: 100 nM 5-HT; normalized to maximal inhibition by SB242084 (1 µM)
hSigma1 receptor = hSigma1 receptor (Homo sapiens, UniProt Q99720); assay: [3H]; type: binding; conditions: read-out: Inhibition of [3H]pentazocine binding Ki ± sem, hSigma1
hSigma1 receptor, sequence (Q99720 whole entry): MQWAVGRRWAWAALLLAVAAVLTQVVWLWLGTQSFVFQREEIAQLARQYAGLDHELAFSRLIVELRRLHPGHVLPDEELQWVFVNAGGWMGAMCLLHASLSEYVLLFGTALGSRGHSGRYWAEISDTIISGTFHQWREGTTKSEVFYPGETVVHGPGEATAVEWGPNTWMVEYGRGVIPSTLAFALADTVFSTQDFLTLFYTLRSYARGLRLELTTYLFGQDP

[17] = overdose with a bath salt product containing 4-FMC and MDPV; ref [44]; cited from earlier work

T2 sequence (P23975 whole entry): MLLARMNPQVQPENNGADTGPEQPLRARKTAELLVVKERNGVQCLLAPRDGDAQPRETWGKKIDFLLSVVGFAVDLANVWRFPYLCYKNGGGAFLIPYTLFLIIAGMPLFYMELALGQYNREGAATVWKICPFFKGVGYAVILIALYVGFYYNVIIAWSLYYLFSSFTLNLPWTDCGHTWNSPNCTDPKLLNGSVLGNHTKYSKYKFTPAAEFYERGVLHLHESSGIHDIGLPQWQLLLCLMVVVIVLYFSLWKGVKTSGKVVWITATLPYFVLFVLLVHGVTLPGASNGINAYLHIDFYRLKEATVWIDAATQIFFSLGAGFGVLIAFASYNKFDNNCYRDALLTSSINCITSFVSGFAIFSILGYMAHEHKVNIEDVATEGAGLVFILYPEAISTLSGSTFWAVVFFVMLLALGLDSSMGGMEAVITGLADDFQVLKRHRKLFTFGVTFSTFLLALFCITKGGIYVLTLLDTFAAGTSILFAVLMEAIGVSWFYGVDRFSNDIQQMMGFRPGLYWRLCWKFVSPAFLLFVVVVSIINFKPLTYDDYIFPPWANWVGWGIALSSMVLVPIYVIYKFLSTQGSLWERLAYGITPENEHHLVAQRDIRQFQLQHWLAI
T1 sequence (Q01959 whole entry): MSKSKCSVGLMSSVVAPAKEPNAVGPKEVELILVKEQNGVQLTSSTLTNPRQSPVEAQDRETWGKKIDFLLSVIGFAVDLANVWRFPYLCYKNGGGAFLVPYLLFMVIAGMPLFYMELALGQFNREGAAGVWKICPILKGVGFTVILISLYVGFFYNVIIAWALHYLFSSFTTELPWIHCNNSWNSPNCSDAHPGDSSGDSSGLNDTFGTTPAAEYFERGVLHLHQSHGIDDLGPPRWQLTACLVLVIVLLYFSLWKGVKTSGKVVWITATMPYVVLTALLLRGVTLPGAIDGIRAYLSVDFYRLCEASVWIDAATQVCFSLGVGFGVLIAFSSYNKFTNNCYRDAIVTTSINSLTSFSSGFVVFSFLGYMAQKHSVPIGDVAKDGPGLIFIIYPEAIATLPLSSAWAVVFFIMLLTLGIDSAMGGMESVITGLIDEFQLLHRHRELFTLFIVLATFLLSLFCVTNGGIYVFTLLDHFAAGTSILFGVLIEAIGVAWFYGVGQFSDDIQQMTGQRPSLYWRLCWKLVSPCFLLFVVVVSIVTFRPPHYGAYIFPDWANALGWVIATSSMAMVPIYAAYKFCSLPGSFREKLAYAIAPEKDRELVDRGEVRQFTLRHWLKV

CNC(C)C(=O)c1ccc(F)cc1 (stereo not drawn) [4-FMC, 4-fluoromethcathinone]
Ki (hDAT [1]): 10.4 ± 3.3 µM | Ki (hNET [2]): 35 ± 10 µM | ratio of binding Ki to uptake IC50, hDAT (hDAT [3]; [125I]RTI-55 Ki / [3H]DA uptake IC50): 38 | IC50 (hDAT [3]; read-out: Inhibition of [3H]neurotransmitter uptake IC50 ± sem, hDAT [3H]DA, 20 nM [3H]DA, intact cells): 0.273 ± 0.074 µM | IC50 (hSERT [4]): > 10 µM | ratio of binding Ki to uptake IC50, hNET (hNET [5]; [125I]RTI-55 Ki / [3H]NE uptake IC50): 276 | IC50 (hNET [5]; read-out: Inhibition of [3H]neurotransmitter uptake IC50 ± sem, hNET [3H]NE, 20 nM [3H]NE, intact cells): 0.127 ± 0.02 µM | % maximum release ± sem, hDAT [3H]DA (hDAT [6]): 98 ± 14% | time of peak/maximal [3H]DA release after addition of drug (hDAT [6]; 4-FMC 10 µM to 300 µM, mephedrone 30 µM, methylone 100 µM): about 6 min | fold less potent than METH to induce [3H]DA release (hDAT [6]; EC50 compared to METH): 45 fold | EC50 (hDAT [6]; read-out: Drug-induced release of [3H]neurotransmitter EC50 ± sem, hDAT [3H]DA, superfusion, AUC): 17.8 ± 7.6 µM | % maximum release ± sem, hSERT [3H]5-HT (hSERT [7]): 39.3 ± 9.7% | time of peak [3H]5-HT release after addition of drug (hSERT [7]): about 6 min | EC50 (hSERT [7]; read-out: Drug-induced release of [3H]neurotransmitter EC50 ± sem, hSERT [3H]5-HT, superfusion, AUC): 39 ± 14 µM | time of peak [3H]NE release after addition of drug (hNET [8]): 8 to 16 min | EC50 (hNET [8]; read-out: Drug-induced release of [3H]neurotransmitter EC50 ± sem, hNET [3H]NE, superfusion, AUC): 1.53 ± 0.43 µM | % maximum release ± sem, hNET [3H]NE (hNET [8]; relative to maximal AUC induced by METH (0.3 or 1 µM)): 194 ± 58% | IC50 (hVMAT2 [9]): 178 ± 36 µM | EC50 (hVMAT2 [10]): > 100 µM | Ki (h5-HT1A receptor [11]): 71.6 ± 3.4 µM | Ki (h5-HT2A receptor [12]): 10 ± 1 µM | Ki (h5-HT2C receptor [13]): 12.6 ± 2.4 µM | h5-HT1A Stimulation of [35S]GTPγS binding % maximum stimulation ± sem (h5-HT1A receptor [14]; normalized to the maximal stimulation by 5-HT): 70.7 ± 8.3% | EC50 (h5-HT1A receptor [14]; read-out: h5-HT1A Stimulation of [35S]GTPγS binding EC50 ± sem): 156 ± 3.4 µM | h5-HT2A Inhibition of 5-HT-stimulated IP-1 formation % maximum inhibition ± sem (h5-HT2A receptor [15]; normalized to maximal inhibition by ketanserin (10 µM)): 97.0 ± 1.6% | IC50 (h5-HT2A receptor [15]; read-out: h5-HT2A Inhibition of 5-HT-stimulated IP-1 formation IC50 ± sem): 23.6 ± 3 µM | h5-HT2C Inhibition of 5-HT-stimulated IP-1 formation % maximum inhibition ± sem (h5-HT2C receptor [16]): 15 ± 20% | Ki (hSigma1 receptor): 24.2 ± 9 µM | serum concentration in overdose [17]: 346 ng/mL | serum concentration in overdose (molar) [17]: ~ 1.6 uM
